Measurements reported in patent publication US20220087996A1, “Histone acetylase p300 inhibitor and use thereof” (HINOVA PHARMACEUTICALS INC., priority 2018, published 2022).

Key:
histone acetylase p300 = molecular target: T1, histone acetylase p300 (Homo sapiens, UniProt Q09472); test: Inhibitory activity on histone acetylase p300 (radioisotope FlashPlate); assay type: biochemical; details: enzyme 0.2 nM, peptide substrate 600 nM, [3H]-Ac-CoA 250 nM; read-out: IC50 against P300
T1 construct: purchased BPS
Source text: Using the radioisotope FlashPlate technology, the half inhibitory concentration (IC50) of the compound according to the present invention was detected against histone acetylase p300 (purchased from BPS). […] Under the catalysis of histone acetylase p300, [3H]—Ac group in the isotope-labeled [3H]-Ac-CoA was transferred to the biotinylated histone polypeptide substrate (purchased from GL Biochem Ltd.), and then the biotinylated histone peptide substrate bound to the streptavidin on the FlashPlate board, so that the isotope was close enough to the FlashPlate board. Thus, the radiation energy of isotope could convert the scintillation fluid coated on the FlashPlate board into photons, that was able to be detected. Detailed procedures were as follows:
• 1× reaction buffer: 50 mM Tris-HCl, pH 7.5; 0.01% Tween-20 • Reaction stop solution: 750 μM Ac-CoA solution
Each test compound was dissolved into 10 mM with 100% DMSO, and then each compound was diluted to the desired concentration in Echo 384-well plate. […] 200 nl of 100% DMSO was transferred into the well as the negative control.
p300 was added to 1× reaction buffer to form a 2× enzyme solution (the final concentration of enzyme being 0.2 nM).
The peptide substrate and [3H]-Ac-CoA were added to the 1-fold reaction buffer, to form a 2-fold substrate solution (the final concentration of the substrate being 600 nM and 250 nM, respectively).
10 μl of 2-fold enzyme solution was added to the wells of 384-well reaction plate. […] The plate was centrifuged at 1000 rpm for 1 min and incubated at room temperature for 15 min.
10 μl of 2-fold substrate solution was added to each well of 384-well reaction plate. The plate was centrifuged at 1000 rpm for 1 min, and then reacted at 25° C. for 60 min.
10 μl of reaction stop solution was added to each well of 384-well reaction plate to stop the reaction. 25 μL solution was collected from each well of the test plate and transferred to Flashplate, that was placed at room temperature for 1 h. Then, Flashplate plate was washed three times with 0.1% Tween-20 solution.
4) Reading Data with MicroBeta 2
The data were copied from Microbeta 2. […] The maximum value is the conversion rate of the control DMSO, and the minimum value is the conversion rate of the control without enzyme activity.
The data were imported into Graph Pad Prism5, and the formula “log(inhibitor) vs. response−Variable slope” was used to perform curve fitting, to obtain the half inhibitory concentration (IC50).

CWR22RV1 cells [1] = test: Inhibition of proliferation of CWR22RV1 cells (CCK-8); assay type: cell-based, human; details: 6 days culture
In short: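 Proliferation read-out was CCK-8 absorbance at 450 nm after 2.5 h, following 6-day culture with compound. Each well held 1500 CWR22RV1 cells; the 3-fold, 9-point series started at a final 10 μM in 0.1% DMSO. Dose-response-inhibition fit gave the IC50.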

CWR22RV1 cells [2] = test: Compound in combination with CDK4/6 inhibitor palbociclib on proliferation of CWR22RV1 cells; assay type: cell-based, human; details: Homo sapiens, CWR22Rv1, single agent; read-out: IC50 against the activity of CWR22RV1 cells
Procedure: The IC50 values (nM) of the compound according to the present invention, palbociclib, and the combination of the compound according to the present invention and palbociclib against CWR22RV1 cell proliferation were tested and calculated, and the detailed procedures were as follows:
(§1) 1) CWR22RV1 cells were subcultured in cell culture medium, and the cells in good growth condition were seeded in a 96-well plate, 60 μL for each well, and the cell number in each well was 2000. The plate was incubated overnight in a 37° C., 5% CO2 cell incubator. 2) The drug was prepared as 10 mM stock solution with dimethyl sulfoxide (DMSO). Prior to use, the stock solution was diluted 3 times with DMSO, and then further diluted as 3-fold gradient to obtain 9 concentration gradients. Then, each concentration of compound was diluted 200 times with the culture solution (ensuring that the DMSO concentration in the culture system was 0.1%), and two replicate wells were set for each concentration. 20 μL of diluted compound solution was added to the cell culture well (with final concentrations of 10 μM, 3.3 μM, 1.1 μM . . . ). Palbociclib was diluted with culture medium to 500 nM, 150 nM, 50 nM, 5 nM, and 20 μL diluted compound solution was added to the corresponding cell culture wells (with a final concentration of 100 nM, 30 nM, 10 nM, 1 nM). The plate was gently shaken to mix. In addition, 3 negative control wells containing only cells and 3 blank control wells containing only culture medium were included (6 wells were each added 20 μL DMSO diluted 200 times with culture medium).
(§2) (1) After culturing for 6 days, 10 μL CCK-8 was added to each well, and the plate was continually cultured in a 37° C., 5% CO2 cell incubator for 2.5 h. (2) The absorbance (OD value) was detected at 450 nm using a multifunctional microplate reader. (3) The data were analyzed by Dose-response-inhibition equation in the software GraphPad Prism6, and the IC50 value was obtained.

MCF-7 cells = test: Compound in combination with CDK4/6 inhibitor palbociclib against proliferation of MCF-7 cells; assay type: cell-based; details: Homo sapiens, MCF7, single agent
Procedure: as §1, §2
Using the same method as Experimental example 4, CWR22RV1 cells were replaced with MCF-7 cells, and the IC50 values (nM) of the compound according to the present invention, palbociclib, as well as the combination of the compound according to the present invention and palbociclib against the proliferation of MCF-7 cells w ere tested and calculated.

[3] = Homo sapiens, CWR22Rv1, 144 h, read-out: IC50 against CWR22RV1 cells
[4] = Homo sapiens, CWR22Rv1, 144 h, read-out: IC50 against CWR22RV1 cells (text)
[5] = read-out: IC50 against CWR22RV1 cells

T1 sequence (Q09472 whole entry): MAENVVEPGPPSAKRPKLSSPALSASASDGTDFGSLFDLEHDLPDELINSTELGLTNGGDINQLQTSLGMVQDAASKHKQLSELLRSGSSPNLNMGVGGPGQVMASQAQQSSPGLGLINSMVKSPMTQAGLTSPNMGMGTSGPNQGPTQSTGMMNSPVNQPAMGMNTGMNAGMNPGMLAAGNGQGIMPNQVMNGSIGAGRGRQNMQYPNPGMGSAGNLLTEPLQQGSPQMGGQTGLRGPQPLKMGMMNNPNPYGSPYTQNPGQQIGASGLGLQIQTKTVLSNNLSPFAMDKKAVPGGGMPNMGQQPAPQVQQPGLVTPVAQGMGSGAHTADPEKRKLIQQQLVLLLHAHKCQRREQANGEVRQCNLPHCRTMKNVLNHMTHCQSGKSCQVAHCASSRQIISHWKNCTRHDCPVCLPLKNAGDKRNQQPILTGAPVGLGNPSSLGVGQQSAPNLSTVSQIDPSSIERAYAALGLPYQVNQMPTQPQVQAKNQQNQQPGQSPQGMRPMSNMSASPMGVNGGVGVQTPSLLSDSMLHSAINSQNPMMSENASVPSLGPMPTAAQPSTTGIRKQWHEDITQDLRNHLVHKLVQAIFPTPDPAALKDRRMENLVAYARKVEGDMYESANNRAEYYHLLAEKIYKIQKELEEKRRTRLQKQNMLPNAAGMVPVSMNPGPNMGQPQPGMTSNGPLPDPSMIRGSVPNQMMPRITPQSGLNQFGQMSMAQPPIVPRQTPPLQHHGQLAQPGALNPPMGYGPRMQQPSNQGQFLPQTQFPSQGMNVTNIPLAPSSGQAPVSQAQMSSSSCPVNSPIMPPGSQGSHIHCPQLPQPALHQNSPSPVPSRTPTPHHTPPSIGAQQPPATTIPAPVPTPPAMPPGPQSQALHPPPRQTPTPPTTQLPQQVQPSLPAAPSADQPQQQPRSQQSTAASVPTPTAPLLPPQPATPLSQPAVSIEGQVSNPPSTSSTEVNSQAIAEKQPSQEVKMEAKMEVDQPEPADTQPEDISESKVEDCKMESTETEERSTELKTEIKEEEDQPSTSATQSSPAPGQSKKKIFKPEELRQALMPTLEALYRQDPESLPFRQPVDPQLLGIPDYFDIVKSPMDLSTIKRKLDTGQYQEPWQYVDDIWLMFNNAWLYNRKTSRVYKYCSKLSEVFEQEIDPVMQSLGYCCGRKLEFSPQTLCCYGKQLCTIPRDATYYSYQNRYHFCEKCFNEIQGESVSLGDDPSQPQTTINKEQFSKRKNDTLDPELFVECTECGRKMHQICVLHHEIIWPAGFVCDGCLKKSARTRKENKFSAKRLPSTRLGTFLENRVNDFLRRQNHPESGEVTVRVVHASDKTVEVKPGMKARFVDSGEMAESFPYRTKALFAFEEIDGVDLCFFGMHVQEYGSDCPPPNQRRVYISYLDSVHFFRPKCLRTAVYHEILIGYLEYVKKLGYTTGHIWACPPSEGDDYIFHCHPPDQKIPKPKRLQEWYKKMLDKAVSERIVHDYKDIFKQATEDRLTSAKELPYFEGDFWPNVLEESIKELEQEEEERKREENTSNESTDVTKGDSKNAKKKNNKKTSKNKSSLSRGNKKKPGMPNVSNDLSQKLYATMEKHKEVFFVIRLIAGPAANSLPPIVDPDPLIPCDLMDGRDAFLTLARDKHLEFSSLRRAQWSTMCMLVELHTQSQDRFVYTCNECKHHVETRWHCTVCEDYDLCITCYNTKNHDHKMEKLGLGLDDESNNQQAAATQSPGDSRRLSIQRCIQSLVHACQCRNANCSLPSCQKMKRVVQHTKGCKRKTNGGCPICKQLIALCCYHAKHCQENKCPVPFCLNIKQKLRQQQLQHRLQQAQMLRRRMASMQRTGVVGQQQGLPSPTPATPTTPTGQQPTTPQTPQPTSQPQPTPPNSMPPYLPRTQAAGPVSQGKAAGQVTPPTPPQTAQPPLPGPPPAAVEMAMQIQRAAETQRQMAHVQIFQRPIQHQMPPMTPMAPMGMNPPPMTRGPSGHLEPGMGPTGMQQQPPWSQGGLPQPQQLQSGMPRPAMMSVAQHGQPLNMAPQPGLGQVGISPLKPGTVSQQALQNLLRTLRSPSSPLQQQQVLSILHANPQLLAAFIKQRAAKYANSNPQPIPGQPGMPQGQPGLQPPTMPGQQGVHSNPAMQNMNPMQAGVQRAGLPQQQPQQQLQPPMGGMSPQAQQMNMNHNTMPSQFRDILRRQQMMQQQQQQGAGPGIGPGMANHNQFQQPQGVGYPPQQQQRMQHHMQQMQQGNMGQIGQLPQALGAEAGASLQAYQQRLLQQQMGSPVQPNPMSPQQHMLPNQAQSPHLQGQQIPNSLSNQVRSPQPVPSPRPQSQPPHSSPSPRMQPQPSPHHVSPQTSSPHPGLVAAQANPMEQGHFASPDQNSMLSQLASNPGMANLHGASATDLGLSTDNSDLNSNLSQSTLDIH

| Structure (SMILES) | IC50 (histone acetylase p300) | IC50 (CWR22RV1 cells [1]; [3]) | IC50 (CWR22RV1 cells [1]; [4]) | IC50 (CWR22RV1 cells [1]; [5]) | IC50 (CWR22RV1 cells [2]) | IC50 (MCF-7 cells) |
| --- | --- | --- | --- | --- | --- | --- |
| CNC(=O)Nc1ccc2c(c1)CC[C@@]21OC(=O)N(CC(=O)N2CCC[C@H]2c2ccccc2)C1=O [Example 225, 1-((R)-2′,4′-dioxo-3′-(2-oxo-2-((S)-2-phenylpyrrolidin-1-yl)ethyl)-2,3-dihydrospiro[indene-1,5′-oxazolidine]-5-yl)-3-methylurea] | 67 nM | 500 to 2000 nM | – | – | – | – |
| CNC(=O)Nc1ccc2c(c1)CC[C@@]21OC(=O)N(CC(=O)N2C(c3ccc(F)cc3F)CC[C@@H]2C)C1=O (stereo partly drawn) [Example 370, 1-((R)-3′-(2-((5S)-2-(2,4-difluorophenyl)-5-methylpyrrolidin-1-yl)-2-oxoethyl)-2′,4′-dioxo-2,3-dihydrospiro[indene-1,5′-oxazolidine]-5-yl)-3-methylurea] | 103 nM | > 2000 nM | – | – | – | – |
| CNC(=O)Nc1ccc2c(c1)CC[C@@]21OC(=O)N(CC(=O)N2[C@@H](C)CC[C@H]2c2ccc(F)cc2F)C1=O [Example 217, 1-((R)-3′-(2-((2S,5S)-2-(2,4-difluorophenyl)-5-methylpyrrolidin-1-yl)-2-oxoethyl)-2′,4′-dioxo-2,3-dihydrospiro[indene-1,5′-oxazolidine]-5-yl)-3-methylurea] | 5.5 nM | ≤ 500 nM | ≤ 500 nM | – | – | – |
| CNC(=O)Nc1ccc2c(c1)CC[C@@]21OC(=O)N(CC(=O)N2C(C3CC3)CC[C@H]2c2ccc(F)cc2)C1=O (stereo in doubt) [Example 380, 1-((R)-3′-(2-((2S,5S)-2-cyclopropyl-5-(4-fluorophenyl)pyrrolidin-1-yl)-2-oxoethyl)-2′,4′-dioxo-2,3-dihydrospiro[indene-1,5′-oxazolidine]-5-yl)-3-methylurea] | 5.1 nM | ≤ 500 nM | ≤ 500 nM | – | – | – |
| COC(=O)Nc1ccc2c(c1)CC[C@@]21OC(=O)N(CC(=O)N2[C@@H](C)CC[C@H]2c2ccc(F)cc2)C1=O [Example 115, ((R)-3′-(2-((2S,5S)-2-(4-fluorophenyl)-5-methylpyrrolidin-1-yl)-2-oxoethyl)-2′,4′-dioxo-2,3-dihydrospiro[indene-1,5′-oxazolidine]-5-yl)carbamic acid methyl ester] | 64 nM | > 2000 nM | – | – | – | – |
| CNC(=O)Nc1ccc2c(c1)CC[C@@]21OC(=O)N(CC(=O)N2[C@@H](C)CC[C@H]2c2ccc(F)cc2)C1=O [Example 14, 1-((R)-3′-(2-((2S,5S)-2-(4-fluorophenyl)-5-methylpyrrolidin-1-yl)-2-oxoethyl)-2′,4′-dioxo2,3-dihydrospiro[indene-1,5′-oxazolidine]-5-yl)-3-methylurea] | 5.7 nM | ≤ 500 nM | ≤ 500 nM | – | – | – |
| CNC(=O)Nc1ccc2c(c1)CC[C@@]21OC(=O)N(CC(=O)N2[C@@H](C)CC[C@H]2c2ccc(F)c(Cl)c2)C1=O [Example 213, 1-((R)-3′-(2-((2S,5S)-2-(3-chloro-4-fluorophenyl)-5-methylpyrrolidin-1-yl)-2-oxoethyl)-2′,4′-dioxo-2,3-dihydrospiro[indene-1,5′-oxazolidine]-5-yl)-3-methylurea] | 13 nM | – | ≤ 500 nM | ≤ 500 nM | – | – |
| CCC1CC[C@@H](C2CCC(F)(F)CC2)N1C(=O)CN1C(=O)O[C@@]2(CCc3cc(NC(=O)NC)ccc32)C1=O (stereo in doubt) [Example 212, 1-((R)-3′-(2-((2S,5R)-2-(4,4-difluorocyclohexyl)-5-ethyl-pyrrolidin-1-yl)-2-oxoethyl)-2′,4′-dioxo-2,3-dihydrospiro[indene-1,5′-oxazolidine]-5-yl)-3-methylurea] | 9.3 nM | ≤ 500 nM | ≤ 500 nM | – | – | – |
| CNC(=O)Nc1ccc2c(c1)CC[C@@]21OC(=O)N(CC(=O)N2C(c3ccc(F)cc3C)CC[C@H]2C)C1=O (some centres unmarked) [Example 21] | 17 nM | – | – | ≤ 500 nM | – | – |
| CNC(=O)Nc1ccc2c(c1)CC[C@@]21OC(=O)N(CC(=O)N2CCCC2c2ccccc2OC)C1=O (stereo partly drawn) [Example 319, 1-((1R)-3′-(2-(2-(2-methoxyphenyl)pyrrolidin-1-yl)-2-oxoethyl)-2′,4′-dioxo-2,3-dihydrospiro[indene-1,5′-oxazolidine]-5-yl)-3-methylurea] | 84 nM | > 2000 nM | – | – | – | – |
| CC[C@H]1CC[C@@H](c2ccc(F)cc2)N1C(=O)CN1C(=O)O[C@@]2(CCc3cc(NC(=O)NC)ccc32)C1=O [Example 43, 1-((R)-3′-(2-((2S,5S)-2-ethyl-5-(4-fluorophenyl)pyrrolidin-1-yl)-2-oxoethyl)-2′,4′-dioxo-2,3-dihydrospiro[indene-1,5′-oxazolidine]-5-yl)-3-methylurea] | 3.1 nM | ≤ 500 nM | ≤ 500 nM | – | – | – |
| CNC(=O)Nc1ccc2c(c1)CC[C@@]21OC(=O)N(CC(=O)N2[C@H](C)CC[C@@H]2c2ccc(F)cc2)C1=O [Example 17, 1-((R)-3′-(2-((2R,5R)-2-(4-fluorophenyl)-5-methylpyrrolidin-1-yl)-2-oxoethyl)-2′,4′-dioxo-2,3-dihydrospiro[indene-1,5′-oxazolidine]-5-yl)-3-methylurea] | 3600 nM | > 2000 nM | – | – | – | – |
| CC(=O)c1c(C)c2cnc(Nc3ccc(N4CCNCC4)cn3)nc2n(C2CCCC2)c1=O [palbociclib, reference compound] | – | – | – | – | 66 nM | 34 nM |
